Patent US20250305004A1, “ENHANCING GENE TARGETING EFFICIENCY IN HUMAN CELLS WITH DNA-PK INHIBITOR TREATMENT” (The Board of Trustees of the Leland Stanford Junior …, priority 2022, published 2025)
“Also recorded” adds a separate entry of the source.

Test system: HBB locus in PSCs
Assay: RNP/AAV6 gene targeting at HBB locus in PSCs
Type: cell-based, human
Settings: UBC-GFP-bGHpA knock-in; 0.5 μM
Description: Gene targeting efficiency was measured by droplet digital PCR (ddPCR) and flow cytometry (for GFP) to measure the allelic targeting efficiency (FIG. 2B) and percentage of targeted cells (FIG. 2C) respectively. […] The treatment was carried out for 24 hours post gene targeting and the efficiency was calculated 1 week post gene targeting using ddPCR analysis.
First, we tested the treatment for editing the sickle cell disease (SCD) and cystic fibrosis (CF) mutations at HBB and CFTR loci respectively using the previously described Cas9 RNP and AAV6 donor reagents in WT PSC^71-73 (FIG. 19a-d).
PSC culture and genome editing. […] Gene targeting efficiency was analyzed at 4-6 days post-editing.
ddPCR analysis of targeted integration. Gene targeting efficiency for the knock-in of multi-kb sequences was measured through digital droplet PCR (ddPCR) analysis. […] After PCR, the droplets were analyzed using the QX200 Droplet Digital PCR reader (Biorad) and Quantasoft software was used to determine the number of copies of the target and reference DNA in the droplets. The allelic gene targeting efficiency was calculated as the percentage of target DNA copies relative to that of the reference. […]
ICE analysis for quantification of gene editing. […] Following PCR, the amplicons were detected on agarose gel and purified from the gel using GeneJet Gel Extraction Kit (Thermo Fisher Scientific, cat: K0692). […]

Compound: Cc1cc2ncnn2cc1Nc1ncc2c(n1)n(C1CCOCC1)c(=O)n2C [AZD7648, 7-methyl-2-((7-methyl-[1,2,4]triazolo[l,5-a]pyridin-6-yl)amino)-9-(tetrahydro-2H-pyran-4-yl)-7,9-dihydro-8H-purin-8-one]
- effect on gene targeting vs untreated: enhanced the gene targeting significantly; also recorded: significant improvement
